Entries after “also recorded” stand apart in the source; their conditions may differ.
System: ras-transformed C3H cells (C3H10T1/2 derived tumors)
Test: Tumor growth in C3H mice bearing subcutaneous ras-transformed C3H cell tumors, treated with reovirus and/or cisplatin
Assay type: in vivo
Conditions: syngeneic tumors measured daily from Day 0, cisplatin 2.5 mg/kg tail vein Days 10, 16, 22, reovirus 5×10^8 PFUs i.v. Days 0, 6, 12, 18
Description: C3H mice (Charles River) were implanted subcutaneously with 1.0×10^6 […] ras-transformed C3H cells (a gift of D. Edwards, University of Calgary) and allowed to develop tumors. The Dearing strain of reovirus serotype 3 used in these studies was propagated in suspension cultures of L cells and purified according to Smith (Smith et al., 1969) with the exception that β-mercaptoethanol (β-ME) was omitted from the extraction buffer. The particle/PFU ratio for purified reovirus was typically 100/1.
The tumor bearing mice were treated with 4 different regimes as described below:
For animals which received reovirus (Series 3-4), 5×10^8 PFUs of reovirus (in 20 μl of saline) were injected intravenously via the tail vein of the animals on Days 0, 6, 12, and 18. […] Cisplatin was injected into the tail vein on Days 10, 16 and 22 at a dose of 2.5 mg per kilogram of body weight. The tumors were measured daily from Day 0 to assess growth rate of the tumors.

## N.N.[Cl][Pt][Cl] [cisplatin]
  effect on growth rate of the tumors: essentially no inhibitory effects; also recorded: no effect on the tumor; also recorded: growth rate that was essentially the same as untreated tumors
